Experimental data taken from US20250312362A1, “INHIBITORS OF MsbA AS ANTIBIOTICS, PHARMACEUTICAL COMPOSITIONS, AND USES THEREOF” (Merck Sharp & Dohme LLC, priority 2022, published 2025).
In brackets after ≈: the same amount, converted by molar mass.

Each compound was assayed on various strains of bacteria (assay: Antimicrobial potency: bacterial growth inhibition by OD600 (Antibacterial assay 1)). Conditions: read-out: Antibacterial assay 1 (MITC95).
Format: cell-based
Description: The concentrations of compounds required to inhibit the growth of various strains of bacteria were determined in an assay that assessed bacterial growth by measuring optical density at 600 nm (OD600). Test articles were dissolved in 100% DMSO and serially diluted two-fold from their maximal concentration in 100% DMSO. Forty-nine μl of bacterial inoculum (at approx. 2×10^5 cfu/mL in CAMHB) were put into wells of an assay plate. One μl of compound or DMSO was transferred from the source plate to the assay plate. The completed assay plates were then incubated at 35±2 degC. for 18-22 h. Bacterial growth was measured by reading OD600 on a spectrophotometer. Data analysis calculates the lowest concentration of compound which results in ≥95% growth inhibition (minimum inhibitory threshold concentration 95%, MITC95).
`O=C(COc1ccc(NS(=O)(=O)c2cnn(-c3ccc(Cl)cc3)c2)c(C(O)O)c1)Nc1ccc(NC(=O)C(=O)NCc2ccc(Cl)cc2)c(C(=O)O)c1` [Compound 13] was tested, and the MIC was 0.0978 µM (≈ 0.0766 µg/mL). Compound `CCCCc1ccc(S(=O)(=O)Nc2ccc(NC(=O)CCC(=O)Nc3ccc(NS(=O)(=O)c4ccc(CCCC)cc4)c(C(=O)O)c3)cc2C(=O)O)cc1` [Compound 2, 5,5′-(succinylbis(azanediyl))bis(2-((4-butylphenyl)sulfonamido)benzoic acid)] has an MIC of 0.0568 µM (≈ 0.0442 µg/mL). `CCCCc1ccc(S(=O)(=O)Nc2ccc(NC(=O)CCC(=O)Nc3ccc(NS(=O)(=O)c4ccc(CCCC)cc4)c(P(=O)(O)O)c3)cc2C(=O)O)cc1` [Compound 1, 2-((4-butylphenyl)sulfonamido)-5-(4-((4-((4-butylphenyl)sulfonamido)-3-phosphonophenyl)amino)-4-oxobutanamido)benzoic acid] gave an MIC of 1.56 µM (≈ 1.27 µg/mL). In the case of `O=C(CCCOc1ccc(NS(=O)(=O)c2cnn(-c3ccc(Cl)cc3)c2)c(C(=O)O)c1)Nc1ccc(NC(=O)Cc2ccc(-c3ccc(F)cc3)cc2)c(C(=O)O)c1` [Compound 11], the MIC is reported as 0.0489 µM (≈ 0.0404 µg/mL). `CCCCc1ccc(S(=O)(=O)Nc2ccc(NC(=O)CCCOc3ccc(NS(=O)(=O)c4sc(-c5ccccc5)nc4C)c(C(=O)O)c3)cc2C(=O)O)cc1` [Compound 8] gave an MIC of 0.0173 µM (≈ 0.014 µg/mL). `O=C(CCCOc1ccc(NS(=O)(=O)c2ccc(-c3ccc(Cl)cc3)s2)c(C(=O)O)c1)Nc1ccc(NS(=O)(=O)c2ccc(-c3ccc(Cl)cc3)s2)c(C(=O)O)c1` [Compound 4, 5-(4-(3-Carboxy-4-((5-(4-chlorophenyl)thiophene)-2-sulfonamido)phenoxy)-butanamido)-2-((5-(4-chlorophenyl)thiophene)-2-sulfonamido)benzoic acid] showed an MIC of 0.0122 µM (≈ 0.0108 µg/mL). With `CCCCc1ccc(S(=O)(=O)Nc2ccc(NC(=O)Nc3ccc(NS(=O)(=O)c4ccc(CCCC)cc4)c(C(=O)O)c3)cc2C(=O)O)cc1` [Compound 15] the MIC was 2.21 µM (≈ 1.6 µg/mL). Work on `O=C(CCCOc1ccc(NS(=O)(=O)c2ccc(Oc3ccc(Cl)cc3)nc2)c(C(=O)O)c1)Nc1ccc(NS(=O)(=O)c2ccc(Oc3ccc(Cl)cc3)nc2)c(C(=O)O)c1` [Compound 9] yielded an MIC of 0.0122 µM (≈ 0.0111 µg/mL). `CCCCc1ccc(S(=O)(=O)Nc2ccc(NC(=O)C[C@H](C)NC(=O)c3ccc(NS(=O)(=O)c4ccc(CCCC)cc4)c(C(O)O)c3)cc2C(=O)O)cc1` [Compound 22] gave an MIC of 0.782 µM (≈ 0.622 µg/mL). `CCCCc1ccc(S(=O)(=O)Nc2ccc(OCCCC(=O)Nc3ccc(NS(=O)(=O)c4ccc(CCCC)cc4)c(C(=O)O)n3)cc2C(=O)O)cc1` [Compound 10] gave an MIC of 0.985 µM (≈ 0.755 µg/mL). Work on `O=C(CCCOc1ccc(NS(=O)(=O)c2cnn(-c3ccc(Cl)cc3)c2)c(C(=O)O)c1)Nc1ccc(NC(=O)Cc2cccc(-c3ccc(F)cc3)c2)c(C(=O)O)c1` [Compound 12] yielded an MIC of 0.0489 µM (≈ 0.0404 µg/mL). Work on `CCCCc1ccc(S(=O)(=O)Nc2ccc(NC(=O)CCC(=O)Nc3cnc(NS(=O)(=O)c4ccc(CCCC)cc4)c(C(=O)O)c3)cc2C(=O)O)cc1` [Compound 3, 2-((4-butylphenyl)sulfonamido)-5-(4-((4-((4-butylphenyl)sulfonamido)-3-carboxyphenyl)amino)-4-oxobutanamido)nicotinic acid] yielded an MIC of 0.621 µM (≈ 0.484 µg/mL). `O=C(CCNC(=O)c1ccc(NS(=O)(=O)c2cnn(-c3ccc(Cl)cc3)c2)c(C(O)O)c1)Nc1ccc(NS(=O)(=O)c2cnn(-c3ccc(Cl)cc3)c2)c(C(=O)O)c1` [Compound 23] gave an MIC of 0.098 µM (≈ 0.0852 µg/mL). `Cc1c(S(=O)(=O)Nc2ccc(NC(=O)CCCOc3ccc(NS(=O)(=O)c4cnn(-c5ccc(Cl)cc5)c4)c(C(=O)O)c3)cc2C(=O)O)sc2ccc(Cl)cc12` [Compound 7] gave an MIC of 0.0122 µM (≈ 0.0105 µg/mL). `O=C(CCCOc1ccc(NS(=O)(=O)c2cnn(-c3ccc(Cl)cc3)c2)c(C(=O)O)c1)Nc1ccc(NS(=O)(=O)c2ccc(-c3cc(Cl)cc(Cl)c3)cc2)c(C(=O)O)c1` [Compound 5] was tested, and the MIC was 0.0122 µM (≈ 0.011 µg/mL). With `O=C(Nc1ccc(NS(=O)(=O)c2cnn(-c3ccc(F)cc3)c2)c(C(=O)O)c1)Nc1ccc(NS(=O)(=O)c2cnn(-c3ccc(F)cc3)c2)c(C(=O)O)c1` [Compound 14, 5-(3-(3-carboxy-4-((1-(4-fluorophenyl)-1H-pyrazole)-4-sulfonamido)phenyl)ureido)-2-((1-(4-fluorophenyl)-1H-pyrazole)-4-sulfonamido)benzoic acid] the MIC was 3.13 µM (≈ 2.44 µg/mL). With `O=C(Nc1ccc(NC(=O)C(=O)NCc2ccc(Cl)cc2)c(C(=O)O)c1)Nc1ccc(NC(=O)C(=O)NCc2ccc(Cl)cc2)c(C(=O)O)c1` [Compound 17, 5,5′-(carbonylbis(azanediyl))bis(2-(2-((4-chlorobenzyl)amino)-2-oxoacetamido)benzoic acid)] the MIC was 0.0245 µM (≈ 0.0177 µg/mL). In the case of `O=C(Nc1ccc(NC(=O)C(=O)NCCc2ccc(Cl)cc2)c(C(=O)O)c1)Nc1ccc(NC(=O)C(=O)NCCc2ccc(Cl)cc2)c(C(=O)O)c1` [Compound 19], the MIC is reported as > 3.13 µM. For `O=C(CCCOc1ccc(NS(=O)(=O)c2cnn(-c3ccc(Cl)cc3)c2)c(C(=O)O)c1)Nc1ccc(NS(=O)(=O)c2ccc(-c3ccc(F)cc3)cc2)c(C(=O)O)c1` [Compound 6], the MIC was 0.0173 µM (≈ 0.0147 µg/mL). `CCCCc1ccc(S(=O)(=O)Nc2ccc(NC(=O)CCNC(=O)c3ccc(NS(=O)(=O)c4ccc(CCCC)cc4)c(C(=O)O)c3)cc2C(=O)O)cc1` [Compound 20, 2-((4-butylphenyl)sulfonamido)-5-(3-(4-((4-butylphenyl)sulfonamido)-3-carboxy-benzamido)propanamido)benzoic acid] gave an MIC of 0.112 µM (≈ 0.0872 µg/mL). For `CCCCc1ccc(S(=O)(=O)Nc2ccc(NC(=O)CCNC(=O)c3ccc(NS(=O)(=O)c4ccc(CCOC)cc4)c(C(O)O)c3)cc2C(=O)O)cc1` [Compound 21], the MIC was 0.782 µM (≈ 0.612 µg/mL).
